Experimental findings from patent US8188102B2, “Amide derivative for inhibiting the growth of cancer cells” (Hanmi Holdings Co., Ltd., priority 2007, dated 2012) are described below.

One test addresses T1, EGFR (Homo sapiens, UniProt P00533).
T1 construct: A skin cancer cell line, A431 (ATCC: CRL-1555), was used; endogenous in cells; host or cells: A431 (ATCC: CRL-1555)
Nature of the test: Prolongation study in A431 cells (EGFR phosphorylation inhibition). It counts as cell-based. Conditions: A-431, 1 μM for 4 hrs, then washed, EGF 100 ng/ml. Here is the method: A skin cancer cell line, A431 (ATCC: CRL-1555), was used to test the degrees of the inventive compounds in inhibiting EGFR's phosphorylation and the prolongation of ability to inhibit it thereof.
The cell line was incubated in a culture flask at 37° C. under 95% air and 5% CO2 using a culture medium containing DMEM, 10% FBS and 1% PS. When more than 90% of the total volume of the culture flask became filled with cells, the cultured cell solution was subject to secondary incubation and was poured to each well of a 6-well plate to the extent of 500,000 cells/well. After 24 hrs, the cells were separated from the solution, washed with PBS, and incubated in a culture medium containing DMEM, 0.1% FBS and 1% PS for 16 hrs. The compounds obtained in Examples 1, 17, 19 and 36, and Tarceva as EGFR phosphorylation inhibitors were each added to the cell-containing well to a concentration of 1 μM. After 4 hrs, the cells were separated from the solution, washed 4 times with PBS after every 0, 2, 4 and 8 hrs, and incubated in a culture medium containing DMEM, 0.1% FBS and 1% PS. […] Just before the completion of the reaction, the cultured cell solution was treated with a 100 ng/ml concentration of EGF (Sigma, Cat No. E9644) for 5 mins to induce the activation of EGFR. After the completion of the reaction, the well plate holding the cultured cells was stored at −70° C. In control groups, the replacement of the medium was performed instead of the addition of the EGFR phosphorylation inhibitor, wherein the induction of EGFR activation using EGF was made only in a positive control group and not made in a negative control group.
For Western blot and enzyme immune measuring (ELISA) methods, the well plate stored at −70° C. was allowed to melt to room temperature, and then protein was extracted from the cells in the well plate using a protein extract buffer. The extraction of the protein was performed as follows: 250 μl of the protein extract buffer (Phosphosafe extraction reagent, Calbiochem, Cat No. 71296-3) comprising protease inhibitor cocktail was added to each cell-containing well, which was stirred at room temperature for 5 mins. The cells were collected using a cell scraper and put in an 1.5 ml tube, which was centrifuged at a speed of 16,000×g for 5 mins. The upper layer thus obtained was separated, of which the protein content was determined by a protein assay kit (Bio-rad, Cat No. 500-0116). The protein extracted was diluted with PBS to a concentration of 0.8 mg/ml.
A human EGFR (py1173) immunoassay kit (Biosource, Cat No. KHR9071) was used in the enzyme immune measuring method. 100 μl of the sample which was diluted by 4 folds with a standard dilution buffer in a kit was added to a strip well, which was incubated at a 4° C. refrigerator overnight. The cultured cells was separated therefrom and washed 4 times with 200 μl of a washing buffer. 100 μl of the resulting primary antibody (anti-human EGFR [pY1173]) was put to each strip well, incubated at 37° C. for 1 hr, and washed 4 times with 200 μl of a washing buffer. The resulting secondary antibody (anti-rabbit IgG-HRP) was diluted by 100 folds with an HRP dilution buffer in a kit. 100 μl of the dilute was put to each strip well, incubated at 37° C. for 30 mins, and washed 4 times with 200 μl of the washing buffer. 100 μl of an HRP substrate in a kit was put to each strip well and incubated in a darkroom for 10 to 30 mins. 100 μl of a reaction stop solution was added thereto to terminate the reaction, and then, the absorbance at 450 nm was observed.
Electrophoresis and Western blot methods were conducted based on the conventional methods in the following: An LDS buffer was added to each sample, which was allowed to boil at 70° C. for 10 mins. 10 μl of the resulting solution was loaded to a 12-well gel (Nupage 4˜12% Bis-tris gel, Invitrogen), followed by 120 volt-electrophoresis in a buffer (MOPS electrophoresis buffer, Invitrogen, Cat No. NP0006-1) for 2 hrs. […]

Another test concerns the target EGFR T790M kinase (Homo sapiens, UniProt P00533, T790M). Description: Inhibition of EGFR mutant enzyme (T790M).
Test [1] deals with A431 skin cancer cell line. Description: Cancer cell growth inhibition, A431 (SRB). Conditions: Homo sapiens, A-431, 72 h, read-out: ID50 (nM) A431.
Test [2] relates to SK-Br3 breast cancer cell line. Nature of the test: Cancer cell growth inhibition, SK-Br3 (SRB). Conditions: Homo sapiens, SK-BR-3, 72 h, read-out: ID50 (nM) SK-Br3.
The test system of test [3] is SW-620 colon/rectal cancer cell line. Nature of the test: Cancer cell growth inhibition, SW-620 (SRB). The note with it: Homo sapiens, SW-620, 72 h, read-out: IC50 (nM) SW-620.
The test system of test [4] is H1975 lung cancer cell line. Nature of the test: Cancer cell growth inhibition, H1975 (celltiter). The note with it: Homo sapiens, NCI-H1975, 48 h, read-out: IC50 (nM) H1975.
Test [5] deals with EGFR (EGFR type 1 kinase, Upstate) (Homo sapiens, UniProt P00533). Nature of the test: Inhibition of EGFR enzyme (fluorescence polarization kinase assay). The note with it: read-out: IC50 (nM) EGFR; EGFR type 1 kinase, ATP 50 μM.
Protocol: 10 μl of an EGFR (EGFR type 1 kinase, Upstate, 10 ng/μl) was added to each well of a 96-well plate. […] The calculation and analysis of IC50 were carried out by using Microsoft Excel.
[6] abbreviates: 0 hr after washing, read-out: EGFR phosphorylation inhibition in A431 cell line (%) 0 hr Avg.
The mark [7] stands for this setting: 8 hrs after washing, read-out: EGFR phosphorylation inhibition in A431 cell line (%) 8 hrs Avg.
[8] abbreviates: 24 hrs after washing, read-out: EGFR phosphorylation inhibition in A431 cell line (%) 24 hrs Avg.
Where [9] appears, read: 48 hrs after washing, read-out: EGFR phosphorylation inhibition in A431 cell line (%) 48 hrs Avg.
Where [10] appears, read: 72 hrs after washing, read-out: EGFR phosphorylation inhibition in A431 cell line (%) 72 hrs Avg.
[11] abbreviates: read-out: IC50 (nM) T790M, EGFR T790M kinase.

Where two headings read alike, the source gives them in different places.

EGFR T790M kinase, sequence (P00533 25-1210 T790M): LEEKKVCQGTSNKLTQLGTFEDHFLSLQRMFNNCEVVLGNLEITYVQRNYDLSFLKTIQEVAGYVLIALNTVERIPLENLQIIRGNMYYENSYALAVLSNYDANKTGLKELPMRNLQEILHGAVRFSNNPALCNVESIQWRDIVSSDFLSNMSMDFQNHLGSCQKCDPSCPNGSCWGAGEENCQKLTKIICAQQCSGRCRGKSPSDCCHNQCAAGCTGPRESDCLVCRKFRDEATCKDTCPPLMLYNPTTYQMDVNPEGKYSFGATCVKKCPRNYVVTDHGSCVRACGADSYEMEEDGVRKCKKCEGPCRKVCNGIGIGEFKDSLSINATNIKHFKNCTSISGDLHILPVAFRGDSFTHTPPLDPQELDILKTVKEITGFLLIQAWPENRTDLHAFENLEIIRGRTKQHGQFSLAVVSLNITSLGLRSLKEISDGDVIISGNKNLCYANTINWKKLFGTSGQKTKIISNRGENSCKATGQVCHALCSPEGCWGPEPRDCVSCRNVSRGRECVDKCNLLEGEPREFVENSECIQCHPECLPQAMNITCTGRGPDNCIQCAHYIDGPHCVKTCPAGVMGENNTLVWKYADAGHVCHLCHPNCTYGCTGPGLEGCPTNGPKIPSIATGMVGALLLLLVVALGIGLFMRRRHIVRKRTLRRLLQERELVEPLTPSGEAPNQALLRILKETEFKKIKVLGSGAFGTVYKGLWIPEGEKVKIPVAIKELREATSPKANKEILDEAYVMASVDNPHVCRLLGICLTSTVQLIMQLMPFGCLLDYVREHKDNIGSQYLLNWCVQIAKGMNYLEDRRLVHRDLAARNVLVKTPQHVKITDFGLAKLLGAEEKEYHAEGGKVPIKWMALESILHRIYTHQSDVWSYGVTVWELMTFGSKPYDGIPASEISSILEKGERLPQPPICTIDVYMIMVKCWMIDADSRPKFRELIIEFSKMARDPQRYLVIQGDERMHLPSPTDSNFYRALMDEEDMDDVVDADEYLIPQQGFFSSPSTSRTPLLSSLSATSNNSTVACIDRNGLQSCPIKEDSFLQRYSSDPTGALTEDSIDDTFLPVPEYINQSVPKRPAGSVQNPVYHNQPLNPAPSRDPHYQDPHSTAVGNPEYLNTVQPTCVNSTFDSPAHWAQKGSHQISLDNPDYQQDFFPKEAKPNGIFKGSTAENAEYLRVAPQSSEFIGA
EGFR (EGFR type 1 kinase, Upstate), sequence (P00533 25-1210): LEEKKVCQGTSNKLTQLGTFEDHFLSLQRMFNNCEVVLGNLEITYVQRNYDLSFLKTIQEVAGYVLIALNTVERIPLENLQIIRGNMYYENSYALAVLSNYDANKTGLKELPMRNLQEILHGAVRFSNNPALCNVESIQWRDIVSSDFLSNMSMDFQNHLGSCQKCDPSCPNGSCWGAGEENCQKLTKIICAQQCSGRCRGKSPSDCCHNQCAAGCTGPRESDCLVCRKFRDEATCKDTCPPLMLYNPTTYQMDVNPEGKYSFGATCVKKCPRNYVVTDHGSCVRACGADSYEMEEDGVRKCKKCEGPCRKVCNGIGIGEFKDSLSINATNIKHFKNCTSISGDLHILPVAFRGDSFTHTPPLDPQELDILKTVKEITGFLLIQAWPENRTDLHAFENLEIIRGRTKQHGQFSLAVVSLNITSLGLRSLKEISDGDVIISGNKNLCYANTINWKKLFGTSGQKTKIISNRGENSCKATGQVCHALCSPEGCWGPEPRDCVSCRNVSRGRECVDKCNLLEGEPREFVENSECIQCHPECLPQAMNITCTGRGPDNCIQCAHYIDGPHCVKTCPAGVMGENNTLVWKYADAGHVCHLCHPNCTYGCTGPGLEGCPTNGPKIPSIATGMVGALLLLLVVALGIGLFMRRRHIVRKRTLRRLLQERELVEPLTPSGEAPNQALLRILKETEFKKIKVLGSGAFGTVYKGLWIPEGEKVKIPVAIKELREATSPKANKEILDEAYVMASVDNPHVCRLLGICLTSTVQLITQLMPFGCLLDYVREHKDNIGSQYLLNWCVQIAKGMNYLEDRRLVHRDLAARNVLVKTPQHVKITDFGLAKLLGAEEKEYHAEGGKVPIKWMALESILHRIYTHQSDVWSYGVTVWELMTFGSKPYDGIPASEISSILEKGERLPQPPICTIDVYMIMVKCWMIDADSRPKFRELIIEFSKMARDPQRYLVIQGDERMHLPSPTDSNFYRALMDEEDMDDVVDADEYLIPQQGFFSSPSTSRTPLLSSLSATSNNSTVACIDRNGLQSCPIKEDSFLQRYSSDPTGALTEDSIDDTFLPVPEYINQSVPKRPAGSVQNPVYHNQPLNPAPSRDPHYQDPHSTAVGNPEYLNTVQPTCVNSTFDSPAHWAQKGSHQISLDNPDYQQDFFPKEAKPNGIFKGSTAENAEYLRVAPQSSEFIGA
T1 sequence (P00533 25-1210): as above

Regarding `C=CC(=O)N1CC(Oc2cc3c(Nc4ccc(F)c(Cl)c4F)ncnc3cc2OC)C1` [Example 17, 1-(3-(4-(3-chloro-2,4-difluorophenylamino)-7-methoxyquinazolin-6-yloxy)azetidin-1-yl)pro-2-pen-1-one], the inhibition at 1 µM at EGFR (setting [6]) was 87%; on EGFR (setting [7]), 88%; on EGFR (setting [8]), 62%; on EGFR (setting [9]), 31%; at EGFR (setting [10]) it was 0%. Moreover, the IC50 at EGFR T790M kinase (setting [11]) is 0.8 nM; in test [1], 0.3 nM; in test [2], 0.3 nM; in test [3] it was above 5000 nM; in test [4] it was 1.5 nM; in test [5], 0.7 nM.

For the compound `C=CC(=O)N1CCC(Oc2cc3c(Nc4ccc(F)c(Cl)c4F)ncnc3cc2OC)CC1` [Example 19, 1-(4-(4-(3-chloro-2,4-difluorophenylamino)-7-methoxyquinazolin-6-yloxy)piperidin-1-yl)pro-2-pen-1-one], the inhibition at 1 µM at EGFR (setting [6]) turned out to be 81%; on EGFR (setting [7]) it was 86%; at EGFR (setting [8]) it was 80%; at EGFR (setting [9]), 34%; at EGFR (setting [10]), 0%. In addition, the IC50 at EGFR T790M kinase (setting [11]) is 1.9 nM; in test [1], 0.3 nM; in test [2] it was 0.3 nM; in test [3], above 5000 nM; in test [4], 1.3 nM; in test [5] it was 1.1 nM.

Take `C=CC(=O)N1CCC(Oc2cc3c(Nc4ccc(F)c(Cl)c4F)ncnc3cc2OCCOC)CC1` [Example 117, 1-(4-(4-(3-Chloro-2,4-difluorophenylamino)-7-(2-methoxyethoxy)quinazolin-6-yloxy)piperidin-1-yl)prop-2-en-1-one]: the IC50 on EGFR T790M kinase is 3 nM; in test [1], 4 nM; in test [2], 1.4 nM; in test [3], above 5000 nM; in test [4], 47 nM; in test [5], 0.7 nM.

For `C=CC(=O)N1CC[C@H](Oc2cc3c(Nc4ccc(F)c(Cl)c4F)ncnc3cc2OC)C[C@H]1C(N)=O` [Example 120, (2S,4S)-1-acryloyl-4-(4-(3-chloro-2,4-difluorophenylamino)-7-methoxyquinazolin-6-yloxy)piperidin-2-carboxamide], the IC50 is 0.7 nM at EGFR T790M kinase (setting [11]); 3 nM in test [1]; 1.3 nM in test [2]; above 5000 nM in test [3]; 5.2 nM in test [4]; 1.4 nM in test [5].

With `C=CC(=O)N1CC[C@@H](Oc2cc3c(Nc4ccc(F)c(Cl)c4F)ncnc3cc2OC)C[C@@H]1C(=O)OC` [Example 133, (2R,4R)-methyl 1-acryloyl-4-(4-(3-chloro-2,4-difluorophenylamino)-7-methoxyquinazolin-6-yloxy)piperidin-2-carboxylate], the IC50 at EGFR T790M kinase (setting [11]) was 1.7 nM; in test [1], 0.7 nM; in test [2], 0.2 nM; in test [3], above 5000 nM; in test [4] it was 5.4 nM; in test [5], 4.4 nM.

With `C=CC(=O)N1CC[C@@H](Oc2cc3c(Nc4ccc(F)c(Cl)c4F)ncnc3cc2OC)C[C@@H]1C(N)=O` [Example 135, (2R,4R)-1-acryloyl-4-(4-(3-chloro-2,4-difluorophenylamino)-7-methoxyquinazolin-6-yloxy)piperidin-2-carboxamide], the IC50 on EGFR T790M kinase (setting [11]) is 0.7 nM; in test [1] it was 0.8 nM; in test [2], 0.2 nM; in test [3] it was above 5000 nM; in test [4], 5.2 nM; in test [5] it was 4.1 nM.

Usually inhibition stands for the share of the control response that was lost under treatment.
